Reference: paper PMC4774911, “Biochemical Screening of Five Protein Kinases from Plasmodium falciparum against 14,000 Cell-Active Compounds” (PLoS ONE, 2016)
Like-named read-outs stand apart in the source and are kept apart here.

Tests used:
[1] = system: DD2; set-up: method as in downloaded from ChEMBL; conditions: ref downloaded from ChEMBL; cited from earlier work
[2] = biological target: T1, Plasmodium falciparum calcium-dependent protein kinase 1 (CDPK1) (Plasmodium falciparum, UniProt P62344); assay: CDPK1 Kinase-Glo ATP-consumption screen and dose-response; format: biochemical
T1 construct: 6-Histidine (N); made in house
T1 sequence (P62344 whole entry): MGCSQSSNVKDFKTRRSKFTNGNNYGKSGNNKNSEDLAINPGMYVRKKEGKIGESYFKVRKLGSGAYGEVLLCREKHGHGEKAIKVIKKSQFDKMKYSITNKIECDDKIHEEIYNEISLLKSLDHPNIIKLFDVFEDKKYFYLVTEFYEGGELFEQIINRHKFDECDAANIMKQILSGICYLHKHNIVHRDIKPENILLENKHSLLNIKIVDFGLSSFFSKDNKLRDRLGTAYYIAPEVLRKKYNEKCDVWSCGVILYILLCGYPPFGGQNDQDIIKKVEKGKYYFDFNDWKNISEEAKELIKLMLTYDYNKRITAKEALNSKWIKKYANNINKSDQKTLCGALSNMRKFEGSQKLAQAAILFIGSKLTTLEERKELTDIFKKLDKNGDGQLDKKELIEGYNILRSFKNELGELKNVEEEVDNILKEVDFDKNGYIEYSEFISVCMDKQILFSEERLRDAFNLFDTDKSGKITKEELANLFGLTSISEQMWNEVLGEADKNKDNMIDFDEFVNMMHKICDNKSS
In short: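 ATP consumption by recombinant P. falciparum CDPK4 or CDPK1 measured as residual ATP by Kinase-Glo luminescence, with 40 μM Syntide-2 substrate and 90 min incubation stopped with 5 mM EGTA. Single-point screen at 1 μM final, followed by dose-response; no-substrate wells as negative control.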

[3] = system: 3D7 PFLDH; set-up: method as in downloaded from ChEMBL; conditions: ref downloaded from ChEMBL; cited from earlier work
[4] = system: HepG2 cells; conditions: cited from earlier work
[5] = system: P. falciparum 3D7 cells; conditions: cited from earlier work
[6] = system: DD2; set-up: method as in F.J. Gamo et al., Nature 2010; conditions: P. falciparum Dd2; downloaded from ChEMBL ref F.J. Gamo et al., Nature 2010; cited from earlier work
[7] = biological target: T2, Plasmodium falciparum protein kinase 6 (PK6) (Plasmodium falciparum, UniProt Q8IDW1); assay: biochemical; conditions: hits below 1 uM; read-out: PK6 IC50
T2 construct: 6-Histidine (N); made in house
T2 sequence (Q8IDW1 1-305): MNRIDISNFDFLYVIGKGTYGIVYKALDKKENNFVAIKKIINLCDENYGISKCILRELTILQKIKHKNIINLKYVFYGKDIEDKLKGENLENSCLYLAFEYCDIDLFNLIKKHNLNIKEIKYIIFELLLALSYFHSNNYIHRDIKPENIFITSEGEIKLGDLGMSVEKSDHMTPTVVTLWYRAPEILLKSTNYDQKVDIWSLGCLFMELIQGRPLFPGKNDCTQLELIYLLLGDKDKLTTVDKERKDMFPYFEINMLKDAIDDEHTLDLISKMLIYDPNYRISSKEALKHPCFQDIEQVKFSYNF

[8] = system: 3D7 PFLDH; set-up: method as in F.J. Gamo et al., Nature 2010; conditions: downloaded from ChEMBL ref F.J. Gamo et al., Nature 2010; cited from earlier work
[9] = system: DD2; set-up: method as in F.J. Gamo et al., Nature 2010; conditions: downloaded from ChEMBL, ref F.J. Gamo et al., Nature 2010; cited from earlier work
[10] = system: 3D7 PFLDH; set-up: method as in F.J. Gamo et al., Nature 2010; concentration or dose not given beside the values; conditions: downloaded from ChEMBL, ref F.J. Gamo et al., Nature 2010; cited from earlier work
[11] = hits below 1 uM, read-out: CDPK1 IC50
[12] = HEPG2, ref downloaded from ChEMBL
[13] = 3D7, ref downloaded from ChEMBL
[14] = HepG2 cells, downloaded from ChEMBL ref F.J. Gamo et al., Nature 2010
[15] = P. falciparum 3D7, downloaded from ChEMBL ref F.J. Gamo et al., Nature 2010
[16] = HepG2, downloaded from ChEMBL, ref F.J. Gamo et al., Nature 2010
[17] = 3D7, downloaded from ChEMBL, ref F.J. Gamo et al., Nature 2010

| SMILES | PCT_INHB_DD2 [1] | IC50 [2, 11] | PCT_INHIB_3D7_PFLDH [3] | PCT_INHIB_HEPG2 [4, 12] | PCT_IHB_3D7 [5, 13] | pXC50_3D7 [5, 13] | further results |
| --- | --- | --- | --- | --- | --- | --- | --- |
| CN(C)CCN(C)Cc1ccc(-c2ccc3c(Nc4ccc(Oc5ccccc5)cc4)ccnc3c2)o1 [TCMDC-138400] | 100 | 718 nM | 0 | 5 | 100 | 6.746 | – |
| NS(=O)(=O)c1cccc(Nc2nccc(-c3cnn4ncccc34)n2)c1 [TCMDC-138919] | – | – | – | – | – | – | PCT_INHIB_HEPG2 [4, 14]: 39; PCT_INHB_DD2 [6]: 89; PCT_IHB_3D7 [5, 15]: 89; pXC50_3D7 [5, 15]: 6.18; IC50 [7]: 246 nM; PCT_INHIB_3D7_PFLDH [8]: 0 |
| c1cncc(Oc2ccc(Nc3ccnc4cc(-c5cccc(CNCCN6CCOCC6)c5)ccc34)cc2)c1 [TCMDC-138492] | 99 | 705 nM | 4 | 14 | 100 | 6.952 | – |
| Cl.Oc1cccc(Nc2ccnc3cc(-c4ccncc4)ccc23)c1 [TCMDC-138292] | 99 | 884 nM | 1 | 8 | 100 | 5.98 | – |
| COc1ccc(-c2cnc3[nH]cc(-c4ccncc4)c3c2)cc1OC [TCMDC-135853] | 97 | 390 nM | 0 | 52 | 98 | 6.899 | – |
| Oc1cc(Nc2ccnc3cc(I)ccc23)c(F)cc1Cl [TCMDC-138386] | 77 | 282 nM | 0 | 0 | 92 | 6.08 | – |
| N#Cc1ccc(-c2cnc3ccc(NCCc4cccnc4)nn23)cc1 [TCMDC-136679] | 81 | 246 nM | 6 | 27 | 99 | 6.593 | – |
| c1ccc(Oc2ccc(Nc3ccnc4cc(-c5ccc(CNCCN6CCOCC6)o5)ccc34)cc2)cc1 [TCMDC-138398] | 99 | 435 nM | 0 | 20 | 99 | 6.358 | – |
| COCCNCc1cccc(-c2ccc3c(Nc4ccc(Oc5ccccc5)cc4)ccnc3c2)c1 [TCMDC-138478] | 99 | 979 nM | 2 | 25 | 100 | 6.287 | – |
| Clc1ccc(-c2cnc3ccc(NCCc4cccnc4)nn23)cc1 [TCMDC-136680] | 32 | 371 nM | 0 | 34 | 97 | 6.067 | – |
| CN1CCN(c2ccc(Nc3nccc(-c4cnn5ncccc45)n3)cc2Cl)CC1 [TCMDC-138688] | – | 232 nM | – | – | – | – | PCT_INHIB_HEPG2 [4, 14]: 65; PCT_INHB_DD2 [6]: 92; PCT_IHB_3D7 [5, 15]: 95; pXC50_3D7 [5, 15]: 6.08; IC50 [7]: 179 nM; PCT_INHIB_3D7_PFLDH [8]: 0 |
| CN(C)CCN(C)Cc1nc(-c2ccc3c(Nc4ccc(Oc5ccccc5)cc4)ccnc3c2)cs1 [TCMDC-138408] | 100 | 915 nM | 0 | 27 | 100 | 6.673 | – |
| CN(C)Cc1ccc(-c2ccc3c(Nc4ccc(Oc5ccccn5)cc4)ccnc3c2)o1 [TCMDC-138425] | 100 | 513 nM | 1 | 18 | 100 | 6.798 | – |
| CN1CCN(Cc2cccc(-c3ccc4c(Nc5cc(O)c(Cl)cc5F)ccnc4c3)c2)CC1 [TCMDC-138430] | 100 | 762 nM | 4 | 0 | 100 | 6.114 | – |
| COc1ccc(-c2cnc3ccc(N4CCCC4)nn23)cc1OC.O=CO [TCMDC-134177] | 98 | 310 nM | 0 | 40 | 98 | 6.113 | – |
| CN(C)CCNCc1ccc(-c2ccc3c(Nc4ccc(Oc5ccccc5)cc4)ccnc3c2)o1 [TCMDC-138399] | 99 | 681 nM | 2 | 19 | 100 | 6.553 | – |
| COc1ccc(-c2cnc3ccc(NC4CCC(O)CC4)nn23)cn1 (stereo not drawn) [TCMDC-136694] | 73 | 379 nM | 4 | 54 | 98 | 6.146 | – |
| COc1cc2nccc(Nc3ccc(Oc4ccccc4)cc3)c2cc1OC.Cl [TCMDC-131917] | 99 | 145 nM | 0 | 13 | 100 | 6.165 | – |
| Fc1cc(Cl)ccc1Nc1ccnc2cc(-c3ccc(CNCCN4CCOCC4)o3)ccc12 [TCMDC-138397] | 100 | 383 nM | 0 | 13 | 100 | 6.5582 | – |
| COc1ccc(-c2cnc3ccc(NCCCO)nn23)cc1OC [TCMDC-136683] | 90 | – | 0 | 9 | 98 | 6.172 | IC50 [2]: 361 nM |
| Oc1cccc(-c2cnc3ccc(NCc4ccc(F)cc4)nn23)c1 [TCMDC-136676] | 66 | 115 nM | 2 | 0 | 91 | 5.965 | – |
| COCCNCc1ncsc1-c1ccc2c(Nc3cc(O)c(Cl)cc3F)ccnc2c1 [TCMDC-138441] | 92 | 150 nM | 0 | 0 | 100 | 6.262 | – |
| CS(=O)(=O)Nc1cccc(-c2cnc3[nH]cc(-c4cccc(CN)c4)c3c2)c1 [TCMDC-136219] | 82 | 387 nM | 0 | 25 | 96 | 5.779 | – |
| CNC(=O)c1ccccc1Nc1nc(Nc2ccc(N3CCN(C)CC3)nc2)ncc1C.Cl [TCMDC-134123] | – | 45 nM | – | – | – | – | PCT_INHIB_HEPG2 [4, 16]: 75%; PCT_IHB_3D7 [5, 17]: 92%; pXC50_3D7 [5, 17]: 5.942; PCT_INHB_DD2 [9]: 50%; PCT_INHIB_3D7_PFLDH [10]: 4%; IC50 [7]: 143 nM |
| Nc1ncc(-c2cccc(F)c2)cc1-c1nc2cc(F)ccc2[nH]1.O=C(O)C(F)(F)F [TCMDC-133132] | – | – | – | – | – | – | PCT_INHIB_HEPG2 [4, 14]: 54; PCT_INHB_DD2 [6]: 88; PCT_IHB_3D7 [5, 15]: 100; pXC50_3D7 [5, 15]: 6.757; IC50 [7]: 206 nM; PCT_INHIB_3D7_PFLDH [8]: 0 |
| Cc1cc(Nc2ncc(Cl)c(Nc3ccccc3C(N)=O)n2)n[nH]1 [TCMDC-134170] | – | 76 nM | – | – | – | – | PCT_INHIB_HEPG2 [4, 16]: 70%; PCT_IHB_3D7 [5, 17]: 98%; pXC50_3D7 [5, 17]: 6.091; PCT_INHB_DD2 [9]: 96%; PCT_INHIB_3D7_PFLDH [10]: 0%; IC50 [7]: 129 nM |
| Cl.NC(=O)c1ccccc1Nc1nc(Nc2cccc(N3CCN(CCO)CC3)c2)ncc1Cl [TCMDC-134114] | – | 58 nM | – | – | – | – | PCT_INHIB_HEPG2 [4, 16]: 93%; PCT_IHB_3D7 [5, 17]: 95%; pXC50_3D7 [5, 17]: 7.402; PCT_INHB_DD2 [9]: 98%; PCT_INHIB_3D7_PFLDH [10]: 1%; IC50 [7]: 80 nM |
| Cl.Oc1cccc(Nc2ccnc3cc(-c4nccs4)ccc23)c1 [TCMDC-138297] | – | 997 nM | 0 | 0 | 98 | – | – |
| CNC(=O)c1ccccc1Nc1nc(Nc2cccc(CS(C)(=O)=O)c2)ncc1C.O=CO [TCMDC-133809] | – | 145 nM | – | – | – | – | PCT_INHIB_HEPG2 [4, 16]: 74%; PCT_IHB_3D7 [5, 17]: 97%; pXC50_3D7 [5, 17]: 6.2733; PCT_INHB_DD2 [9]: 95%; PCT_INHIB_3D7_PFLDH [10]: 0%; IC50 [7]: 133 nM |
